From PubChem BioAssay (NCI) come the findings set out here.

Assay in all cases: NCI anticancer screen, dose series, 48 h
In assay [1] the test system is SK-MEL-28 melanoma.
For assay [2], the system named is KM12 colon.
Assay [3] concerns SK-OV-3 ovarian.
The subject of assay [4] is PC-3 prostate.
The test system of assay [5] is OVCAR-3 ovarian.
Assay [6] concerns HCC-2998 colon.
Assay [7] relates to HOP-92 NSCLC.
Assay [8] has as its system K-562 leukemia.
The subject of assay [9] is SF-268 CNS.
Assay [10] deals with NCI-H522 lung.

Values joined by “and” are separate entries in the source; they are usually repeats but may differ in a detail not shown here. Equal entries are not always repeated.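 Compound exposure: 48 hours, 5 concentrations, 96-well plates. GI50 marks 50% less growth. Definition used: TGI = concentration required for complete inhibition of growth.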 Where only a bound is given, the exact number is not on record here.

For `CC(C)(C)c1ccc(-c2nnc(SCc3ccc(Cl)cc3)n2-c2cccc(C(F)(F)F)c2)cc1`, the TGI in assay [1] is above 100 µM; in assay [2], above 100 µM; in assay [3] it was above 100 µM; in assay [4], above 100 µM; in [5], 16.8 µM; in [6], above 62.4 µM. Besides, the TGI in assay [7], in assay [8], in [9] and in assay [10] was above 100 µM throughout.
With `Cn1c(=O)c(Cc2ccc(F)cc2F)cc2cnc(NC3CCOCC3)nc21`, the GI50 in [1], in assay [2], in assay [3], in assay [4], in assay [5] and in [6] was above 25 µM each time. Also, the GI50 was 2.13 µM in [7], above 20.1 µM in [8], above 25 µM in assay [9] and above 25 µM in assay [10]. For the same compound, the TGI in [1], in assay [2], in assay [3], in assay [4], in [5] and in [6] was above 25 µM throughout. Besides, the TGI in assay [7], in assay [8], in [9] and in assay [10] was above 25 µM in each case.
Turning to `COC(=O)c1ccc2c(c1)nc(-c1ccc(Cl)cc1)n2-c1cc(C(C)(C)C)[nH]n1`, the GI50 is 3.38 µM in [1]; 2.12 µM in [2]; 3.71 µM in assay [3]; 2.93 µM in assay [4]; 2.35 µM in [5]; 3.9 µM in assay [6]. The GI50 in assay [7] was 1.15 µM; in [8] it was 4.2 µM; in assay [9], 3.29 µM; in assay [10] it was 3.21 µM. Further, the TGI amounted to 15.5 µM in [1]; 6.07 µM in assay [2]; 31 µM in assay [3]; 15.7 µM in assay [4]; 6.13 µM in [5]; 19.8 µM in assay [6]. Moreover, the TGI in assay [7] was 8.02 µM; in assay [8] it was above 100 µM; in assay [9] it was 17.8 µM; in assay [10], 20.3 µM.
Consider `COc1cc2c(/C=C3\C(=O)Nc4ccc(Br)cc43)c(Cl)n(C)c2cc1C`, for which the GI50 in assay [1] was 0.418 µM; in assay [2], 0.387 µM; in assay [3] it was 3.87 µM; in assay [4], 1.17 µM; in [5], 1.56 µM; in assay [6], 1.66 µM. The GI50 was 2.37 µM in assay [7], 1.96 µM in assay [8], 1.31 µM in [9] and 1.66 µM in assay [10]. The TGI in assay [1] worked out at 3.49 µM; in assay [2], 1.88 µM; in [3], 18.6 µM; in assay [4], 18.3 µM; in assay [5], 3.56 µM; in [6], 4.62 µM. For the same compound, the TGI in [7] was 17.9 µM; in assay [8], above 29.2 µM; in [9], 8 µM; in assay [10], 4.29 µM.
On to `O=[N+]([O-])c1ccc2[nH]cc(-c3c4ccccc4cc4[nH]c5ccc([N+](=O)[O-])cc5c34)c2c1`, for which the GI50 in assay [1] was 1.8 µM; in assay [2], 1.78 µM; in assay [3], 3.38 µM; in [4] it was 1.9 µM; in assay [5] it was 2.57 µM; in assay [6] it was 2.33 µM. The GI50 in [7] was 2.25 µM; in assay [8], 3.5 µM; in assay [9], 2.66 µM; in assay [10], 2.12 µM. Besides, the TGI in [1] is 3.71 µM; in [2], 3.37 µM; in assay [3], 10.8 µM; in assay [4], 4.43 µM; in assay [5], 7.32 µM; in [6] it was 4.58 µM. Also, the TGI is 5.89 µM in assay [7], above 100 µM in [8], 9.57 µM in assay [9] and 6.1 µM in assay [10].
For `CN(C)CCn1cc(-c2ccc3c(Nc4ccc(CC(=O)Nc5cccc(F)c5)cc4)ncnc3c2)cn1`, the GI50 in assay [1] was 1.61 µM; in assay [2], 0.393 µM; in assay [3], above 10 µM; in assay [4], 1.75 µM; in [5], 1.6 µM; in [6], 1.77 µM. Further, the GI50 in [7] is 6.27 µM; in assay [8], 2.72 µM; in assay [9], 1.43 µM; in assay [10], 1.32 µM. The TGI was 3.02 µM in [1]; 1.97 µM in [2]; above 10 µM in [3]; 7.92 µM in [4]; 3.48 µM in assay [5]; 3.84 µM in [6]. Besides, the TGI in assay [7] was above 10 µM; in assay [8] it was above 10 µM; in assay [9], 3.39 µM; in assay [10], 3.22 µM.
Consider `Cc1ccc(Cl)cc1Nc1nc(C(F)(F)F)ccc1C(=O)Oc1ccc(Cl)cc1`, for which the GI50 in assay [1] is 21.9 µM; in [2], 21.6 µM; in assay [3], 12.2 µM; in assay [4], 5.85 µM; in assay [5], 2.55 µM; in assay [6] it was 8.86 µM. In addition, the GI50 in assay [7] is 1.92 µM; in assay [8], 4.37 µM; in [9] it was 14 µM; in [10] it was 22.3 µM. In addition, the TGI is above 100 µM in assay [1]; 63.6 µM in assay [2]; 37.4 µM in [3]; 21.1 µM in assay [4]; 8.81 µM in assay [5]; 29.4 µM in [6]. In addition, the TGI was 14.8 µM in [7], 15 µM in assay [8], 38.7 µM in assay [9] and above 100 µM in [10].
Consider `O=Cc1ccc(C(F)(F)F)cc1.[C-]#[O+].[C-]#[O+].[C-]#[O+].[Cr]`, for which the GI50 in assay [1] is 63 µM; in assay [2], 24.6 µM; in [3] it was 31.3 µM; in assay [4] it was 31.2 µM; in assay [5], 25.4 µM; in assay [6] it was 53.6 µM. Also, the GI50 in [7] is 24.8 µM; in assay [8], 26.2 µM; in assay [9], 21 µM; in [10] it was 23.7 µM. The TGI in [1] is above 100 µM; in [2], 91.5 µM; in [3], above 100 µM; in [4] it was above 100 µM; in [5] it was above 100 µM; in [6], above 100 µM. Moreover, the TGI in assay [7] was above 100 µM; in assay [8], 97.6 µM; in assay [9], above 100 µM; in assay [10], above 100 µM.
In the case of `NC(=O)NC(=O)CI`, the GI50 in [1] is 13 µM; in assay [2] it was 18.2 µM; in [3], 27.4 µM; in assay [4], 12.6 µM; in assay [5] it was 1.92 µM; in assay [6], 18.5 µM. For the same compound, the GI50 in assay [7] is 1.65 µM; in [8] it was 1.03 µM; in assay [9] it was 16.2 µM; in [10], 0.208 µM. The TGI in assay [1] was 26.2 µM; in assay [2], 35.5 µM; in [3] it was above 56.2 µM; in [4], 26.8 µM; in [5], 3.45 µM; in assay [6], 35.1 µM. In addition, the TGI in assay [7] is 3.89 µM; in assay [8], 3.6 µM; in assay [9], 36.4 µM; in assay [10], 0.475 µM.
As to `CNCCNc1nc2ccccc2c2c(=O)c3cccc(OC)c3sc12`, the GI50 is 1.94 µM in assay [1]; 1.62 µM in [2]; 1.65 µM in assay [3]; 1.24 µM in [4]; 1.52 µM in [5]; 1.55 µM in assay [6]. For the same compound, the GI50 in assay [7] was 1.13 µM; in assay [8] it was 0.596 µM; in [9], 1.56 µM; in assay [10] it was 1.34 µM. Also, the TGI came to 3.62 µM in assay [1]; 3.11 µM in [2]; 3.84 µM in assay [3]; 2.8 µM in assay [4]; 3.02 µM in assay [5]; 3.18 µM in assay [6]. For the same compound, the TGI in assay [7] was found to be 3.77 µM; in [8] it was 2.65 µM; in [9], 3.33 µM; in [10] it was 3.1 µM.
For the compound `Cn1c(=O)c(F)c(Nc2ccc(I)cc2F)c2c(=O)n(C[C@@H](O)CO)cnc21`, the GI50 is < 0.01 µM and 0.00301 µM in assay [1]; 0.0237 µM and 0.0319 µM in assay [2]; 15.1 µM in [3]; 16.4 µM in assay [4]; 13.6 µM in assay [5]; < 0.01 µM and 0.0028 µM in assay [6]. Also, the GI50 in assay [7] is below 0.01 µM; in assay [8], 0.172 µM and 0.112 µM; in assay [9], 10.4 µM. The TGI was 39.1 µM and > 4.11 µM in [2]; above 68.8 µM in [3]; 71.5 µM and > 4.12 µM in assay [4]; 40.4 µM and > 3.85 µM in [5]; 0.0969 µM and 0.57 µM in [6]; 0.087 µM and 0.179 µM in [7]. In addition, the values for the TGI in assay [8], in assay [9] and in assay [10] were above 84 µM, above 82.5 µM and above 100 µM, respectively.
Turning to `CCCCOC(=O)N[C@H]1CCc2cc(OC)c(OC)c(OC)c2-c2ccc(SC)c(=O)cc21`, the TGI was 16.2 µM in assay [1]; below 0.0464 µM in [2]; 7.24 µM in assay [3]; above 81 µM in [4]; below 0.0329 µM in assay [5]; 2.29 µM in [6]. In addition, the TGI in assay [7] was 30.9 µM; in assay [8] it was 65.1 µM; in assay [9], 25.1 µM; in assay [10], below 0.01 µM.
In the case of `CC1SC(c2cccs2)N(NC(=O)C(O)c2ccccc2)C1=O` (configuration not stated), the GI50 in assay [1], in assay [2], in assay [3], in assay [4], in [5] and in [6] was above 100 µM each time. Moreover, the GI50 in assay [7], in [8], in assay [9] and in assay [10] was above 100 µM in each case. Moreover, the TGI in [1], in assay [2], in assay [3], in assay [4], in assay [5] and in assay [6] was above 100 µM in each case. The TGI in assay [7], in assay [8], in assay [9] and in assay [10] was above 100 µM in each case.
As to `CC(C)(C)NNc1c([N+](=O)[O-])cnn(-c2ccccc2)c1=O`, the TGI was found to be 5.79 µM in [1]; 24.5 µM in assay [2]; 16 µM in assay [3]; 3.23 µM in [4]; 5.54 µM in assay [5]; 11.8 µM in assay [6]. Further, the TGI turned out to be 12.3 µM in assay [7], 2.02 µM in assay [8], 31 µM in assay [9] and 4.72 µM in [10].
For the compound `Nc1nc(Cl)nc2c1ncn2C1O[C@H](CO)[C@@H](O)[C@@H]1F` (some centres not stated), the GI50 in assay [1] is above 100 µM; in assay [2], 29.7 µM; in assay [3] it was 0.761 µM; in assay [4], above 24.6 µM; in assay [5], above 100 µM; in assay [6] it was 0.075 µM. Moreover, the values for the GI50 in assay [7], in assay [8] and in assay [9] were 0.0653 µM, 3.79 µM and 0.229 µM, respectively. Moreover, the TGI in assay [1], in assay [2], in assay [3], in assay [4], in assay [5] and in assay [6] was above 100 µM each time. Further, the TGI in [7] is 4.8 µM; in assay [8] it was above 100 µM; in assay [9], above 54 µM; in assay [10], above 100 µM.
Take `O=Nc1c(-c2cccc([N+](=O)[O-])c2)nc2ncccn12`: the GI50 is 15.2 µM in assay [1]; 12.4 µM in [2]; 22.8 µM in [3]; 13.7 µM in assay [4]; 3.22 µM in assay [5]; 15.2 µM in assay [6]. For the same compound, the GI50 in [7] was 3.19 µM; in [8], 1.28 µM; in [9], 18.3 µM; in assay [10], 10.6 µM. Further, the TGI in [1] worked out at 30.2 µM; in assay [2], 26.8 µM; in assay [3], 59.6 µM; in assay [4] it was 36.3 µM; in assay [5], 12.5 µM; in assay [6], 28.9 µM. Besides, the TGI came out at 21.6 µM in assay [7], 4.15 µM in [8], 66.8 µM in assay [9] and 25.1 µM in [10].
